Here are results for 25 compounds from ChEMBL document CHEMBL3351679, “Radioiodinated benzyloxybenzene derivatives: a class of flexible ligands target to β-amyloid plaques in Alzheimer's brains” (J Med Chem, 2014).

The target of series [1] is T1, Amyloid-beta precursor protein (Homo sapiens, UniProt P05067). Briefly: Displacement of [125I]1-Iodo-4-((4-methoxyphenoxy)methyl)benzene from amyloid beta42 (unknown origin) after 3 hrs by gamma counting. (Loss of bound radioactivity is the signal in a displacement assay; it reports binding, not function.)
The test system of series [2] is Brain. The series can be described thus: Biodistribution in ICR mouse brain at 250 uCi, iv measured at 2 mins post dose. The series is classed as ADME, organism-based. To be noted: in vivo.
The test system of series [3] is Brain. The series can be described thus: Biodistribution in ICR mouse brain at 250 uCi, iv measured at 60 mins post dose. The series is classed as ADME, organism-based. The conditions noted are these: in vivo, 1 h.
Series [4] is described as follows: Partition coefficient, log D of the compound. The conditions noted are these: octanol/water. Type of series: physicochemical.
Series [5] concerns Liver. Briefly: In vivo biostability in ICR mouse liver assessed as radioactivity at 250 uCi, iv measured at 2 mins post dose. The series is classed as ADME, organism-based.
The subject of series [6] is Brain. The series can be described thus: In vivo biostability in ICR mouse brain assessed as radioactivity at 250 uCi, iv measured at 30 mins post dose. Type of series: ADME, organism-based. To be noted: 0.5 h.
Series [7] can be described thus: In vivo biostability in ICR mouse urine assessed as radioactivity at 250 uCi, iv measured at 10 mins post dose. The series is classed as ADME, organism-based.
A short description of series [8]: In vivo biostability in ICR mouse feces assessed as radioactivity at 250 uCi, iv measured at 60 mins post dose. The series is classed as ADME, organism-based. To be noted: 1 h.
In series [9] the test system is Brain. Briefly: In vivo biostability in ICR mouse brain assessed as radioactivity at 250 uCi, iv measured at 2 mins post dose. The series is classed as ADME, organism-based.
The test system of series [10] is Blood. Briefly: In vivo biostability in ICR mouse blood assessed as radioactivity at 250 uCi, iv measured at 2 mins post dose. The series is classed as ADME, organism-based.
Series [11] deals with Brain. Briefly: In vivo biostability in ICR mouse brain assessed as radioactivity at 250 uCi, iv measured at 60 mins post dose. To be noted: 1 h. Type of series: ADME, organism-based.
The subject of series [12] is Blood. Briefly: In vivo biostability in ICR mouse blood assessed as radioactivity at 250 uCi, iv measured at 60 mins post dose. Type of series: ADME, organism-based. To be noted: 1 h.
For series [13], the system named is Liver. Briefly: Biostability in mouse liver homogenate assessed as radioactivity at 30 uCi at 37 degC measured at 60 mins by HPLC. Type of series: ADME, tissue-based. To be noted: tissue homogenate, 1 h.
Series [14] in a line: In vivo biostability in ICR mouse feces assessed as radioactivity at 250 uCi, iv measured at 30 mins post dose. The series is classed as ADME, organism-based. To be noted: 0.5 h.
In series [15] the target is T1, Amyloid-beta precursor protein. The series can be described thus: Binding affinity to amyloid beta42 (unknown origin) after 3 hrs by gamma counting.
The test system of series [16] is Liver. The series can be described thus: In vivo biostability in ICR mouse liver assessed as radioactivity at 250 uCi, iv measured at 60 mins post dose. The series is classed as ADME, organism-based. The conditions noted are these: 1 h.
Series [17] relates to Blood. Briefly: In vivo biostability in ICR mouse blood assessed as radioactivity at 250 uCi, iv measured at 30 mins post dose. Type of series: ADME, organism-based. To be noted: 0.5 h.
The nature of series [18]: In vivo biostability in ICR mouse urine assessed as radioactivity at 250 uCi, iv measured at 60 mins post dose. Type of series: ADME, organism-based. To be noted: 1 h.
Series [19] concerns Blood. Briefly: In vivo biostability in ICR mouse blood assessed as radioactivity at 250 uCi, iv measured at 10 mins post dose. The series is classed as ADME, organism-based.
The subject of series [20] is Brain. Briefly: In vivo biostability in ICR mouse brain assessed as radioactivity at 250 uCi, iv measured at 10 mins post dose. The series is classed as ADME, organism-based.
The subject of series [21] is Liver. The series can be described thus: In vivo biostability in ICR mouse liver assessed as radioactivity at 250 uCi, iv measured at 10 mins post dose. The series is classed as ADME, organism-based.
The test system of series [22] is Brain. The series can be described thus: Ratio of drug uptake in ICR mouse brain at 250 uCi, iv measured at 2 mins post dose to drug uptake in ICR mouse brain at 250 uCi, iv measured at 60 mins post dose. Type of series: ADME, organism-based. To be noted: in vivo.
Series [23] can be described thus: In vivo biostability in ICR mouse urine assessed as radioactivity at 250 uCi, iv measured at 30 mins post dose. The series is classed as ADME, organism-based. The conditions noted are these: 0.5 h.
Series [24] has as its system Plasma. Briefly: Biostability in mouse plasma assessed as radioactivity at 30 uCi at 37 degC measured at 60 mins by HPLC. Type of series: ADME, cell-free. The conditions noted are these: 1 h.
In series [25] the test system is Liver. Briefly: In vivo biostability in ICR mouse liver assessed as radioactivity at 250 uCi, iv measured at 30 mins post dose. Type of series: ADME, organism-based. The conditions noted are these: 0.5 h.

T1 sequence (P05067 whole entry): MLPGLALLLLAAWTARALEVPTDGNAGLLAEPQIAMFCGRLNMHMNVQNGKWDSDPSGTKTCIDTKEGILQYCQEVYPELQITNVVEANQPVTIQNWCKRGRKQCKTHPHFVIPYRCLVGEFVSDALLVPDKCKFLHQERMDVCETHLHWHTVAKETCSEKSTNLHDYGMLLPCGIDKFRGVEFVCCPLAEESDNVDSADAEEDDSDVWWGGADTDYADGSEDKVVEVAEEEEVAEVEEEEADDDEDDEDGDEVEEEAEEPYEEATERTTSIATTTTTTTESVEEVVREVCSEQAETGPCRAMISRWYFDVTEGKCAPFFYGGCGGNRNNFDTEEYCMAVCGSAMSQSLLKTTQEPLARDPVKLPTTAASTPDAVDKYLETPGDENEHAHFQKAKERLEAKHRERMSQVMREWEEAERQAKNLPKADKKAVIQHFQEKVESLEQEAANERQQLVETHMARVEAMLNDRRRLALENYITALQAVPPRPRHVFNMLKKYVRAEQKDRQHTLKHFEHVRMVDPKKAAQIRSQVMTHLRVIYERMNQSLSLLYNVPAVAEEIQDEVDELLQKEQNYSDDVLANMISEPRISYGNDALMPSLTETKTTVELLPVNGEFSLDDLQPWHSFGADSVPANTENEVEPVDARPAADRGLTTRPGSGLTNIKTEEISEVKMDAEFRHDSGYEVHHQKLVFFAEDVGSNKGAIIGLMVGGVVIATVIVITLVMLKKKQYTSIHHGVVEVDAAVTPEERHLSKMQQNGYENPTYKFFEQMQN

As for `Nc1ccccc1OCc1ccc(I)cc1`, the Ki in [1] (read-out: Ki) is 1030 nM; in series [1] (read-out: pKi (converted)), 1020 nM.

Regarding `COc1ccc(OCc2ccc(I)cc2)cc1`, the Ki is 24.3 nM in series [1] (read-out: Ki) and 24.5 nM in series [1] (read-out: pKi (converted)).

On to `COc1ccccc1OCc1ccc(I)cc1`, for which the Ki in series [1] (read-out: Ki) was 5160 nM; in series [1] (read-out: pKi (converted)), 5130 nM.

Turning to `Oc1cccc(OCc2ccc(I)cc2)c1`, the Ki in [1] (read-out: Ki) was 386 nM; in [1] (read-out: pKi (converted)) it was 389 nM.

Consider `COc1cccc(OCc2ccc(I)cc2)c1`, for which the Ki in series [1] (read-out: Ki) was 131 nM; in series [1] (read-out: pKi (converted)), 132 nM.

Consider `Ic1ccc(COc2ccc(I)cc2)cc1`, for which the Ki in series [1] (read-out: Ki) and in series [1] (read-out: pKi (converted)) was 21.9 nM each time.

Consider `Fc1ccc(OCc2ccc(I)cc2)cc1`, for which the Ki in [1] (read-out: Ki) and in series [1] (read-out: pKi (converted)) was 107 nM each time.

For the compound `CN(C)c1cccc(OCc2ccc(I)cc2)c1`, the Ki in [1] (read-out: Ki) is 894 nM; in [1] (read-out: pKi (converted)), 891 nM.

On to `COc1ccc(SCc2ccc(I)cc2)cc1`, for which the values for the Ki in [1] (read-out: Ki) and in series [1] (read-out: pKi (converted)) were 530 nM and 525 nM, respectively.

Take `Oc1ccc(OCc2ccc(I)cc2)cc1`: the Ki was 113 nM in [1] (read-out: Ki) and 112 nM in series [1] (read-out: pKi (converted)).

Turning to `Clc1ccc(OCc2ccc(I)cc2)cc1`, the Ki was 18.8 nM in series [1] (read-out: Ki) and 18.6 nM in [1] (read-out: pKi (converted)).

The term logD denotes lipophilicity at a set pH, counting ionised and neutral species. Regarding `COc1ccc(COc2ccc([125I])cc2)cc1`, the Drug uptake in [2] is greater than 4 % ID/g; in series [3], less than 0.5 % ID/g. Besides, the logD in series [4] stood at 4.16.

For `Nc1cccc(OCc2ccc(I)cc2)c1`, the Ki was 1530 nM in [1] (read-out: Ki) and 1550 nM in [1] (read-out: pKi (converted)).

Consider `Nc1ccc(OCc2ccc(I)cc2)cc1`, for which the Ki was 409 nM in series [1] (read-out: Ki) and 407 nM in series [1] (read-out: pKi (converted)).

For the compound `CC(C)(C)c1ccc(OCc2ccc(I)cc2)cc1`, the results for the Ki in [1] (read-out: Ki) and in [1] (read-out: pKi (converted)) were 118 nM and 117 nM, respectively.

`CNc1cccc(OCc2ccc(I)cc2)c1`: the Ki in series [1] (read-out: Ki) is 594 nM; in [1] (read-out: pKi (converted)) it was 589 nM.

`COc1ccc(COc2ccc(I)cc2)cc1`: the Ki is 49.4 nM in series [1] (read-out: Ki) and 49 nM in [1] (read-out: pKi (converted)).

With `Oc1ccccc1OCc1ccc(I)cc1`, the Ki in [1] (read-out: Ki) was 2830 nM; in series [1] (read-out: pKi (converted)), 2820 nM.

As for `CNc1ccc(OCc2ccc(I)cc2)cc1`, the figures for the Ki in series [1] (read-out: Ki) and in [1] (read-out: pKi (converted)) were 48.2 nM and 47.9 nM, respectively.

As to `Brc1ccc(OCc2ccc(I)cc2)cc1`, the Ki in series [1] (read-out: Ki) and in [1] (read-out: pKi (converted)) was 12 nM throughout.

Take `CN(C)c1ccc(OCc2ccc(I)cc2)cc1`: the Ki in series [1] (read-out: Ki) was 17.6 nM; in [1] (read-out: pKi (converted)), 17.8 nM.

For orientation: Kd means the free concentration of one partner at which half of the binding sites on the other are occupied at equilibrium, for simple one-to-one binding. A low value points to higher affinity. For the compound `COc1ccc(OCc2ccc([125I])cc2)cc1`, the Stability in [5] was 42.4%; in series [6], 46.6%; in series [7], 8.4%; in series [8] it was 40.6%; in series [9] it was 95%; in series [10], 71.5%. Besides, the Stability in series [11] was 38.9%; in series [12], 10.6%; in [13] it was 100%; in series [14], 49.9%; in series [16], 1.9%; in [17] it was 18.2%. Also, the Stability turned out to be 1.3% in [18]; 49.7% in series [19]; 82% in series [20]; 31.9% in [21]; 2.4% in series [23]; 100% in [24]. Further, the Stability in [25] was determined as 2.5%. In addition, the Drug uptake is reported as 6.18 % ID/g in [2] and less than 0.5 % ID/g in [3]. Besides, in series [15], the Kd was 0.56 nM. Further, the logD in [4] was 4. Also, the Ratio in [22] is listed as 16.3.

Turning to `Ic1ccc(COc2ccccc2)cc1`, the Ki in [1] (read-out: Ki) and in series [1] (read-out: pKi (converted)) was 79.4 nM throughout.

With `CN(C)c1ccc(OCc2ccc([125I])cc2)cc1`, the values for the Drug uptake in series [2] and in series [3] were greater than 4 % ID/g and less than 0.5 % ID/g, respectively. Further, the logD in series [4] was 2.89.

As for `CNc1ccccc1OCc1ccc(I)cc1`, the Ki was 20700 nM in series [1] (read-out: Ki) and 20900 nM in [1] (read-out: pKi (converted)).
